From patent publication US20260217767A1, “NOVEL A4B7 THIOETHER PEPTIDE DIMER ANTAGONISTS” (Protagonist Therapeutics, Inc., priority 2014, published 2026)
Where a SMILES comes first, the peptide text is derived from it.

Key:
rh integrin α4β7 = molecular target: T1, rh integrin α4β7 (Homo sapiens, UniProt P13612+P26010); experiment: α4β7-MAdCAM Competition ELISA; assay type: binding; conditions: thioether monomer peptides, Table 6; read-out: ELISA A4B7
T1 construct: purchased R&D Systems 5397-A30
T1 sequence (P13612 34-977 limits assumed): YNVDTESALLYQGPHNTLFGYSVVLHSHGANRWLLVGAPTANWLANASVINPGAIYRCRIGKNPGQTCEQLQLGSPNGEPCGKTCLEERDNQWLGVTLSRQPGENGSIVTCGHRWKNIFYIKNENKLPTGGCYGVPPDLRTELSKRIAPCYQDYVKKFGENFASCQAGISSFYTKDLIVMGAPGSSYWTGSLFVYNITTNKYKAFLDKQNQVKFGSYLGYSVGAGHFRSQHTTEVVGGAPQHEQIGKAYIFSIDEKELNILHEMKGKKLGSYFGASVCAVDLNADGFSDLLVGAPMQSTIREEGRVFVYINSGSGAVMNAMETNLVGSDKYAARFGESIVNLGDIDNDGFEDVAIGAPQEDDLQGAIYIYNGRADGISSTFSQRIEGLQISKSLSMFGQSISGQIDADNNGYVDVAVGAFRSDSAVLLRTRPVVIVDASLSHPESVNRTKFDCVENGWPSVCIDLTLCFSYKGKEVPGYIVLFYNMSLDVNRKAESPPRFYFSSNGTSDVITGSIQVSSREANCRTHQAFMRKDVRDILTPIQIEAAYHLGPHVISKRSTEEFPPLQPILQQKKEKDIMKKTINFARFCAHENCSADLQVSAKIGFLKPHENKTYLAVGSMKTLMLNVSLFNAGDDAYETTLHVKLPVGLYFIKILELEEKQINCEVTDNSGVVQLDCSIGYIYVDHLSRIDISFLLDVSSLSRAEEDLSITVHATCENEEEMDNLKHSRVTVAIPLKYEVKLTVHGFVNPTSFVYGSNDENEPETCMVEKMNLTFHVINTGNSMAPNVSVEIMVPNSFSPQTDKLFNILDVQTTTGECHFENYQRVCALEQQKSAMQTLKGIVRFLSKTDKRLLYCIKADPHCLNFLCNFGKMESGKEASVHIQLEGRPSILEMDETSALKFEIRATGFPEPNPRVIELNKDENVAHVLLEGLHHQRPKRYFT
T1 sequence (P26010 20-723 limits assumed): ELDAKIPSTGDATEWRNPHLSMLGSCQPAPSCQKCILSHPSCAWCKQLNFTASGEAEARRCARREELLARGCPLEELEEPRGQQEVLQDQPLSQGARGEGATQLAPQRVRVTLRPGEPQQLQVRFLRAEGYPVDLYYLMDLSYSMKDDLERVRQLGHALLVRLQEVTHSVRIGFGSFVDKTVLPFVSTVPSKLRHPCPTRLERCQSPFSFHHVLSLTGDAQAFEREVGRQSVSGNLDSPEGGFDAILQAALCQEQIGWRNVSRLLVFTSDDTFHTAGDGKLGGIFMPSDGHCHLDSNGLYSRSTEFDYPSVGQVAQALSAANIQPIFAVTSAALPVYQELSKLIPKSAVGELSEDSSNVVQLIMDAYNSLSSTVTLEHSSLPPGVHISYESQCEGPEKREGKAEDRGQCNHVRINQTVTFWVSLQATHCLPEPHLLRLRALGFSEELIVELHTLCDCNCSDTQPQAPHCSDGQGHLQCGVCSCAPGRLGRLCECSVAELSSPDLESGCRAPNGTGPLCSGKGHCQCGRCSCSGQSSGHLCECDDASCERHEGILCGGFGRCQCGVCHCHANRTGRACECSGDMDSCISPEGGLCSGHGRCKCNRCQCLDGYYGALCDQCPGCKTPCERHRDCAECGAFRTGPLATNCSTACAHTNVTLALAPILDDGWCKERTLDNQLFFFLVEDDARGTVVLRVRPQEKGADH
Protocol: α4β7-MAdCAM Competition ELISA A nickel coated plate (Pierce #15442) was coated with rh integrin α4β[…] Systems #5397-A30) at 800 ng/well and incubated at room temperature with shaking for 1 hr. The solution was then removed by shaking and blocked with assay buffer (50 mM Tris-HCl pH7.6, 150 mM NaCl, 1 mM MnCl2 or MgCl2, 0.05% Tween-20 and 0.5% BSA) at 250 ul/well. The plate was then incubated at room temperature for 1 hr. Each well was washed 3 times with wash buffer (50 mM Tris-HCl pH7.6, 100 mM NaCl, 1 mM MnCl2 or MgCl2, 0.05% Tween-20). To each well was added 25 ul of a serial dilution (3-fold dilutions in assay buffer) of peptides starting at 20 μM. 25 ul of recombinant human MAdCAM-1 (R&D Systems #6056-MC) was then added to each well at a fixed concentration 20 nM. The final starting peptide concentration was 10 μM, and the final MAdCAM-1 concentration was 10 nM. The plates were then incubated at room temperature for 1 hr to reach binding equilibrium. The wells were then washed three times with wash buffer. 50 ul of mouse anti-human IgG1-HRP (Invitrogen #A10648) diluted in 1:2000 in assay buffer was then added to each well. The wells were incubated at room temperature for 45 min with shaking. The wells were then washed 3 times with wash buffer. 100 ul of TMB were then added to each well and closely observe during development time. The reaction was stopped with 2N H2SO4 and absorbance was read at 450 nm.

[1] = Simulated Intestinal Fluid (SIF) Stability Assay; assay type: in vitro ADME; conditions: pig, simulated intestinal fluid (SIF) with 1% porcine pancreatin, pH 6.5, porcine pancreatin, 37° C.; monomers, Table 6
In short: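 Peptide at 22 μM final was incubated at 37° C in blank FaSSIF pH 6.5 with 1% porcine pancreatin. Timed samples were quenched in acetonitrile/methanol/formic acid with internal standard and analysed by LC-MS/MS. Half-lives came from first-order exponential fits of percent remaining.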

SMILES	IC50 (rh integrin α4β7) [µM]	half-life at 22 μM [1] [h]
CC(C)C[C@@H]1NC(=O)[C@H]([C@@H](C)O)NC(=O)[C@H](CC(=O)O)NC(=O)[C@H](CO)NC(=O)[C@H](CCCNC(=N)N)N(C)C(=O)c2ccccc2CSC(C)(C)[C@@H](C(=O)N[C@@H](Cc2ccc3ccccc3c2)C(=O)N[C@@H](CCC(=O)O)CC(=O)N[C@H](CCCCN)C(N)=O)NC1=O [compound 70]	< 0.025	> 3
CC(C)C[C@@H]1NC(=O)[C@H]([C@@H](C)O)NC(=O)[C@H](CC(=O)O)NC(=O)[C@H](CO)NC(=O)[C@H](CCCNC(=N)N)N(C)C(=O)CSC(C)(C)[C@@H](C(=O)N[C@@H](Cc2c[nH]c3ccccc23)C(=O)N[C@H](CCCCN)C(N)=O)NC1=O [compound 53]	0.1 to 1	> 3
CC(C)C[C@@H]1NC(=O)[C@H]([C@@H](C)O)NC(=O)[C@H](CC(=O)O)NC(=O)[C@H](CO)NC(=O)[C@H](CCCNC(=N)N)N(C)C(=O)c2ccccc2CSC(C)(C)[C@@H](C(=O)N[C@@H](Cc2cccc3ccccc23)C(=O)N[C@H](CCC(=O)O)C(=O)N[C@H](CCCCN)C(N)=O)NC1=O [compound 68] (HELM PEPTIDE1{[meR].S.D.T.L.[Pen].[O=C([C@H](Cc1cccc2ccccc12)N[*:1])[*:2]].[dE].[dK].[am]}|CHEM1{[O=C(c1ccccc1C[*:2])[*:1]]}$PEPTIDE1,CHEM1,1:R1-1:R1|PEPTIDE1,CHEM1,6:R3-1:R2$$$V2.0)	< 0.025	> 3
CC(C)C[C@@H]1NC(=O)[C@H]([C@@H](C)O)NC(=O)[C@H](CC(=O)O)NC(=O)[C@H](CO)NC(=O)[C@H](CCCNC(=N)N)N(C)C(=O)c2ccccc2CSC(C)(C)[C@@H](C(=O)N[C@H](Cc2ccccc2)C(=O)N[C@@H](CCC(=O)O)C(=O)N[C@H](CCCCN)C(N)=O)NC1=O [compound 72] (HELM PEPTIDE1{[meR].S.D.T.L.[Pen].[dF].E.[dK].[am]}|CHEM1{[O=C(c1ccccc1C[*:2])[*:1]]}$PEPTIDE1,CHEM1,1:R1-1:R1|PEPTIDE1,CHEM1,6:R3-1:R2$$$V2.0)	< 0.025	> 3
CC(C)C[C@@H]1NC(=O)[C@H]([C@@H](C)O)NC(=O)[C@H](CC(=O)O)NC(=O)[C@H](CO)NC(=O)[C@H](CCCNC(=N)N)N(C)C(=O)c2ccccc2CSC(C)(C)[C@@H](C(=O)N[C@H](Cc2ccccc2)C(=O)N[C@@H](Cc2ccc3ccccc3c2)C(=O)N[C@H](CCCCN)C(N)=O)NC1=O [compound 71] (HELM PEPTIDE1{[meR].S.D.T.L.[Pen].[dF].[O=C([C@H](Cc1ccc2ccccc2c1)N[*:1])[*:2]].[dK].[am]}|CHEM1{[O=C(c1ccccc1C[*:2])[*:1]]}$PEPTIDE1,CHEM1,1:R1-1:R1|PEPTIDE1,CHEM1,6:R3-1:R2$$$V2.0)	0.025 to 0.1	> 3
CC(C)C[C@@H]1NC(=O)[C@H]([C@@H](C)O)NC(=O)[C@H](CC(=O)O)NC(=O)[C@H](CO)NC(=O)[C@H](CCCNC(=N)N)N(C)C(=O)c2ccccc2CSC(C)(C)[C@@H](C(=O)N[C@@H](Cc2ccc(O)cc2)C(=O)N[C@@H](CCC(=O)O)C(=O)N[C@H](CCCCN)C(N)=O)NC1=O [compound 78] (HELM PEPTIDE1{[meR].S.D.T.L.[Pen].Y.E.[dK].[am]}|CHEM1{[O=C(c1ccccc1C[*:2])[*:1]]}$PEPTIDE1,CHEM1,1:R1-1:R1|PEPTIDE1,CHEM1,6:R3-1:R2$$$V2.0)	< 0.025	1.3
CC(C)C[C@@H]1NC(=O)[C@H]([C@@H](C)O)NC(=O)[C@H](CC(=O)O)NC(=O)[C@H](CO)NC(=O)[C@H](CCCNC(=N)N)N(C)C(=O)c2ccccc2CSC(C)(C)[C@@H](C(=O)N[C@@H](Cc2ccc3ccccc3c2)C(=O)N[C@H](CCC(=O)O)C(=O)N[C@H](CCCCN)C(N)=O)NC1=O [compound 75] (HELM PEPTIDE1{[meR].S.D.T.L.[Pen].[O=C([C@H](Cc1ccc2ccccc2c1)N[*:1])[*:2]].[dE].[dK].[am]}|CHEM1{[O=C(c1ccccc1C[*:2])[*:1]]}$PEPTIDE1,CHEM1,1:R1-1:R1|PEPTIDE1,CHEM1,6:R3-1:R2$$$V2.0)	< 0.025	> 3
CC(C)C[C@@H]1NC(=O)[C@H]([C@@H](C)O)NC(=O)[C@H](CC(=O)O)NC(=O)[C@H](CO)NC(=O)[C@H](CCCNC(=N)N)N(C)C(=O)c2ccccc2CSC(C)(C)[C@@H](C(=O)N[C@@H](Cc2ccc(O)cc2)C(=O)N[C@@H](CCC(=O)O)CC(=O)N[C@H](CCCCN)C(N)=O)NC1=O [compound 74] (HELM PEPTIDE1{[meR].S.D.T.L.[Pen].Y.[O=C(O)CC[C@@H](CC(=O)[*:2])N[*:1]].[dK].[am]}|CHEM1{[O=C(c1ccccc1C[*:2])[*:1]]}$PEPTIDE1,CHEM1,1:R1-1:R1|PEPTIDE1,CHEM1,6:R3-1:R2$$$V2.0)	< 0.025	> 3
COC(=O)CC[C@H](NC(=O)[C@H](Cc1c[nH]c2ccccc12)NC(=O)[C@H]1NC(=O)[C@H](CC(C)C)NC(=O)[C@H]([C@@H](C)O)NC(=O)[C@H](CC(=O)O)NC(=O)[C@H](CO)NC(=O)[C@H](CCCNC(=N)N)N(C)C(=O)c2ccccc2CSC1(C)C)C(=O)N[C@H](CCCCN)C(N)=O [compound 115] (HELM PEPTIDE1{[meR].S.D.T.L.[Pen].W.E.[dK].[am]}|CHEM1{[CO[*:1]]}|CHEM2{[O=C(c1ccccc1C[*:2])[*:1]]}$PEPTIDE1,CHEM1,8:R3-1:R1|PEPTIDE1,CHEM2,1:R1-1:R1|PEPTIDE1,CHEM2,6:R3-1:R2$$$V2.0)	< 0.025	
CC(=O)NCCCC[C@@H](NC(=O)C[C@H](CCC(=O)O)NC(=O)[C@H](Cc1c[nH]c2ccccc12)NC(=O)[C@H]1NC(=O)[C@H](CC(C)C)NC(=O)[C@H]([C@@H](C)O)NC(=O)[C@H](CC(=O)O)NC(=O)[C@H](CO)NC(=O)[C@H](CCCNC(=N)N)N(C)C(=O)c2ccccc2CSC1(C)C)C(N)=O [compound 83] (HELM PEPTIDE1{[meR].S.D.T.L.[Pen].W.[O=C(O)CC[C@@H](CC(=O)[*:2])N[*:1]].[dK].[am]}|PEPTIDE2{[ac]}|CHEM1{[O=C(c1ccccc1C[*:2])[*:1]]}$PEPTIDE1,PEPTIDE2,9:R3-1:R2|PEPTIDE1,CHEM1,1:R1-1:R1|PEPTIDE1,CHEM1,6:R3-1:R2$$$V2.0)	< 0.025	
